The record followed here is US9193717B2, “Mineralocorticoid receptor antagonists” (Merck Sharp & Dohme Corp., priority 2011, dated 2015).

The target of the test is T1, full-length human Mineralocorticoid Receptor (MR) (Homo sapiens, UniProt P08235).
T1 construct: full-length human Mineralocorticoid Receptor (MR); host or cells: PathHunter CHO-K1 cells
T1 sequence (P08235 1-984): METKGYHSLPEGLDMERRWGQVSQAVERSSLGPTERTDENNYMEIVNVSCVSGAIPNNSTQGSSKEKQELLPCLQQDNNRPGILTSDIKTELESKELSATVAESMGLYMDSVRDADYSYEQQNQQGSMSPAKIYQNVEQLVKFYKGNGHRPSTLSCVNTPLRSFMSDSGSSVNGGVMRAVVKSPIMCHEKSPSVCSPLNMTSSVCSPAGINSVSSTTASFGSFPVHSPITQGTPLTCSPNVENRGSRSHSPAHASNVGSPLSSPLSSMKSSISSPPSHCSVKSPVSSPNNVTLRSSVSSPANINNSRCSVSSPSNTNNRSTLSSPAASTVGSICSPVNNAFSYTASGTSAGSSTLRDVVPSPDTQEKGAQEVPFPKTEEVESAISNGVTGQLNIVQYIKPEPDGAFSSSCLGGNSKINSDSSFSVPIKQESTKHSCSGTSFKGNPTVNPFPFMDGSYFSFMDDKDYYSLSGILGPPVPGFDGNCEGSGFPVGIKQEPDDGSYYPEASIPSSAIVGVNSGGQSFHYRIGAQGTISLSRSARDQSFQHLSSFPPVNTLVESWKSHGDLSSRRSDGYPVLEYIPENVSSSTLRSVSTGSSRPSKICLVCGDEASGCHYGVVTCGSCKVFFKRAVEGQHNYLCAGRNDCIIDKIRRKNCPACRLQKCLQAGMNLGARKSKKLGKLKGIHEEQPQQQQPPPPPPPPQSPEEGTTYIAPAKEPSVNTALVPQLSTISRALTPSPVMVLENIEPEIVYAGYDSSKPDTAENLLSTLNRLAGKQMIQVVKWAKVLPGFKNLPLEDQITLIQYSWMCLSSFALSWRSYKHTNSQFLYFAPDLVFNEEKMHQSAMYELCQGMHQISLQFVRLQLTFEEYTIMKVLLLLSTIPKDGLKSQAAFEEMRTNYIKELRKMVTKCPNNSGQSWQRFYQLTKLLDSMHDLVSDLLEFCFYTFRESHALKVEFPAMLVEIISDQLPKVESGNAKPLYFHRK
Description: human MR NH Pro assay (PathHunter Protein:Protein interaction assay, MR antagonism). It counts as cell-based. The note with it: PathHunter CHO-K1 cells that overexpress human MR, aldosterone (0.3 nM), 6 hours at 37° C., antagonist mode. As for the experimental part: The activity of the compounds of the present invention regarding mineralocorticoid receptor antagonism was evaluated using the following assay.
Assessment of Mr Potency in HMR NH Pro Assay
The human MR NH Pro assay is a commercially available PathHunter™ Protein:Protein interaction assay (DiscoveRx; http://www.discoverx.com/nhrs/prod-nhrs.php) that measures the ability of compounds to antagonize full-length human Mineralocorticoid Receptor (MR) binding to a coactivator peptide. PathHunter™ CHO—K1 cells that overexpress human MR (Cat #93-0456C2, Lot No: 09B0913) were cultured in growth media (F12K w/Glutamine and phenol red (Gibco 11765-047) supplemented with 10% HI FBS (Gibco 16000); 0.25 mg/ml Hygromycin in PBS (Invitrogen 10687-010, 50 mg/ml); 100 I.U./mL and 100 μg/mL Pen/Strep (Gibco 15140-122); 0.6 mg/mL Geneticin).
Compounds were assessed for MR antagonist activity by incubating the cells with a titrating dose of compound in F12K w/Glutamine and phenol red culture media (Invitrogen 11765-047) supplemented with 1% Charcoal/Dextran Treated FBS (Hyclone #SH30068.01) and aldosterone (0.3 nM) for 6 hours at 37° C. […] Growth Media: • F12K w/Glutamine and phenol red (Gibco 11765-047) • 10% HI FBS (Gibco 16000) • 0.25 mg/ml Hygromycin in PBS (Invitrogen 10687-010, 50 mg/ml) • 100 I.U./mL and 100 μg/mL Pen/Strep (Gibco 15140-122) • 0.6 mg/mL Geneticin (Gibco 10131, 50 mg/ml) • 2. Assay Media: • F12K w/Glutamine and phenol red (Invitrogen 11765-047) • 1% Charcoal/Dextran Treated FBS (Hyclone #SH30068.01) • 3. 3× PathHunter Detection Reagents (Cat#93-0001) (need ˜6 ml/plate). […] Control Agonist:Aldosterone:Sigma cat# A9477 • Prepare stock solution-10 μM in DMSO kept at −20° C. • for assay, dilute in assay media to 1.8 or 6 nM (6× of final concentration=about 0.3 nM to about 1.0 nM) • 5. Cell line: PathHunter CHO—K1 MR cells Cat #93-0456C2, Lot No: 09B0913, from operation liquid nitrogen stock. • 6. Control Antagonist:Spironolactone:Sigma #S-3378 and Eplerenone Sigma #107724-20-9 (10 mM stock concentration also prepared in DMSO and stored at −20° C.). • Methods: • Assay Set up and Calculations: • 1. Cells were grown in F12+FBS+Hygromycin+pen/strep+Genetin • 2. Cells were collected with 0.05% trypsin and the cell suspension was spun and resuspended in a volume of F12+1.5% CD-FBS and counted. • 3. The cells were resuspended to 4×10^5 cells/mL. • 4. Cells were (25 μL/well) added to the wells of a 384 well plate. • 5. The plate was then incubated at 37° C. over night in a humidified incubator with 5% CO2. • 6. Test compounds were titrated starting at 4.4 mM, 10-point titration in 1:3 dilution. • 7. Aldosterone was diluted in assay media to 1.8 nM or 6 nM from 10 μM stock (final concentration to be about 0.3 nM to about 1.0 nM). • Protocol for 384 Well Plate Format: 6 Hr Treatment: • 1. Plated 10K exponentially growing cells/well (25 μL) resuspended in assay media to each well using the Multidrop (Thermo Electron) (use white wall, clear bottom assay plates (Costar #3570) and incubate overnight at 37° C., 5% CO2. • 2. 0.25 μL 120× test compound (final DMSO concentration should be <1%) was added to each well n=2, 10 point titrations starting at 36.7 μM final concentration. • 3. 5 μL 6× agonist (final aldosterone concentration should be about 0.3 nM to about 1.0 nM) was added to all wells using the PlateMate Plus.
(ThermoFisher) (except those wells in columns 23 and 24) • 4. 5 μL of assay media was added to all wells in column 23 and 24. • 5. Plates were incubated 6 hrs at 37° C., 5% CO2. • 6. 15 μL 3× DiscoveRx detection reagent was added to each well. • 7. Plates were incubated for 1 hour at room temperature (plates stored in the dark). • 8. Plates were read on Envision (PerkinElmer) luminesence plate reader and analyzed using ADA.

Like-named read-outs stand apart in the source and are kept apart here.

For the compound `CNC(=O)c1ccc2[nH]c([C@@]3(Cc4ccccc4)OC(=O)N([C@H](C)c4ccc(F)cc4)C3=O)nc2c1` [Compound 21, Methyl 2-{(5R)-5-benzyl-3-[(1R)-1-(4-fluorophenyl)ethyl]-2,4-dioxo-1,3-oxazolidin-5-yl}-1H-benzimidazole-5-carboxamide], where the note is “read-out: IC50 rating”, the IC50 was in the range of 0.1 to 0.5 µM.
With `C[C@H](c1ccc(F)cc1)N1C(=O)O[C@](Cc2ccccc2)(c2nc3cc(F)ccc3[nH]2)C1=O` [Compound 2, (5R)-5-Benzyl-5-(5-fluoro-1H-benzimidazol-2-yl)-3-[(1R)-1-(4-fluorophenyl)ethyl]-1,3-oxazolidine-2,4-dione], the IC50 (read-out: IC50 rating) is 0.1 to 0.5 µM.
For `Cc1noc(C)c1-c1ccc2[nH]c([C@@]3(Cc4ccccc4)OC(=O)N([C@H](C)c4ccc(F)cc4)C3=O)nc2c1` [Compound 23, (5R)-5-Benzyl-5-[5-(3,5-dimethylisoxazol-4-yl)-1H-benzimidazol-2-yl]-3-[(1R)-1-(4-fluorophenyl)ethyl]-1,3-oxazolidine-2,4-dione], the IC50 (read-out: IC50 rating) was < 0.1 µM.
Turning to `C[C@H](c1ccc(F)cc1)N1C(=O)O[C@](Cc2ccccc2)(c2nc3c(Cl)cccc3[nH]2)C1=O` [Compound 20, 5-Benzyl-5-(4-chloro-1H-benzimidazol-2-yl)-3-[(1R)-1-(4-fluorophenyl)ethyl]-1,3-oxazolidine-2,4-dione], the IC50 (read-out: IC50 rating) is 0.1 to 0.5 µM.
In the case of `C[C@H](c1ccccc1)N1C(=O)N[C@](Cc2ccccc2)(c2nc3ccc(Cl)cc3[nH]2)C1=O` (single isomer, unassigned) [Compound 38], the IC50 (read-out: IC50 rating) fell in the range of 0.5 to 2 µM.
Consider `CCCCCC[C@@H](C)N1C(=O)O[C@](Cc2ccccc2)(c2nc3cc(NS(C)(=O)=O)ccc3[nH]2)C1=O` [Example 42, N-(2-((R)-5-benzyl-3-((R)-octan-2-yl)-2,4-dioxooxazolidin-5-yl)-1H-benzo[d]imidazol-5-yl)methanesulfonamide], for which the IC50 (Table 3, read-out: IC50) was 0.5 to 2 µM.
Regarding `COC(=O)c1ccc2nc([C@@]3(Cc4ccccc4)OC(=O)N([C@H](C)c4ccc(F)cc4)C3=O)[nH]c2c1` [Compound 5, Methyl 2-{(5R)-5-benzyl-3-[(1R)-1-(4-fluorophenyl)ethyl]-2,4-dioxo-1,3-oxazolidin-5-yl}-1H-benzimidazole-5-carboxylate], the half-inhibitory concentration (IC50) (read-out: IC50 rating) lay in the range of 0.1 to 0.5 µM.
Regarding `COc1ncccc1-c1cccc2[nH]c([C@@]3(Cc4ccccc4)OC(=O)N([C@H](C)c4ccc(F)cc4)C3=O)nc12` [Compound 33, (5R)-5-Benzyl-3-[(1R)-1-(4-fluorophenyl)ethyl]-5-[4-(2-methoxypyridin-3-yl)-1H-benzimidazol-2-yl]-1,3-oxazolidine-2,4-dione], the IC50 (read-out: IC50 rating) was < 0.1 µM.
Turning to `O=C1O[C@](Cc2ccc(F)cc2)(c2nc3ccc(Cl)cc3[nH]2)C(=O)N1[C@@H]1CCc2ccccc21` [Compound 17, 5-(6-Chloro-1H-benzimidazol-2-yl)-3-[(1R)-2,3-dihydro-1H-inden-1-yl]-5-(4-fluorobenzyl)-1,3-oxazolidine-2,4-dione], where the note is “read-out: IC50 rating”, the IC50 lay within 0.1 to 0.5 µM.
On to `C[C@H](c1ccc(F)cc1)N1C(=O)O[C@](Cc2ccccc2)(c2nc3cc(-c4cccnc4)ccc3[nH]2)C1=O` [Compound 25, (5R)-5-Benzyl-3-[(1R)-1-(4-fluorophenyl)ethyl]-5-(5-pyridin-3-yl-1H-benzimidazol-2-yl)-1,3-oxazolidine-2,4-dione], for which the IC50 (read-out: IC50 rating) is < 0.1 µM.
For `CCS(=O)(=O)Nc1ccc2nc([C@@]3(Cc4ccccc4)OC(=O)N([C@H](C)c4ccc(F)cc4)C3=O)[nH]c2c1` [Compound 16, N-(2-{(5R)-5-Benzyl-3-[(1R)-1-(4-fluorophenyl)ethyl]-2,4-dioxo-1,3-oxazolidin-5-yl}-1H-benzimidazol-6-yl)ethanesulfonamide], where the note is “read-out: IC50 rating”, the 50% inhibitory concentration (IC50) fell in the range of 0.1 to 0.5 µM.
As for `C[C@H](c1ccc(F)cc1)N1C(=O)O[C@](Cc2ccccc2)(c2nc3cc(OC(F)(F)F)ccc3[nH]2)C1=O` [Compound 4, (5R)-5-Benzyl-3-[(1R)-1-(4-fluorophenyl)ethyl]-5-[5-(trifluoromethoxy)-1H-benzimidazol-2-yl]-1,3-oxazolidine-2,4-dione], the IC50 (read-out: IC50 rating) lay in the range of 0.1 to 0.5 µM.
As for `C[C@H](C1CCCCC1)N1C(=O)O[C@](Cc2ccccc2)(c2nc3ccc(Cl)cc3[nH]2)C1=O` [Compound 12, (5R)-5-Benzyl-5-(5-chloro-1H-benzimidazol-2-yl)-3-[(1R)-1-cyclohexylethyl]-1,3-oxazolidine-2,4-dione], the IC50 (read-out: IC50 rating) was < 0.1 µM.
Same read-out and setting: then `C[C@H](c1ccc(F)cc1)N1C(=O)O[C@](Cc2ccccc2)(c2nc3cc(-c4cnn(C)c4)ccc3[nH]2)C1=O` [Compound 24, (5R)-5-Benzyl-3-[(1R)-1-(4-fluorophenyl)ethyl]-5-[5-(1-methyl-1H-pyrazol-4-yl)-1H-benzimidazol-2-yl]-1,3-oxazolidine-2,4-dione], with < 0.1 µM.
For `C[C@H](c1ccc(F)cc1)N1C(=O)O[C@](Cc2ccccc2)(c2nc3cc(-n4cnnn4)ccc3[nH]2)C1=O` [Compound 6, (5R)-5-Benzyl-3-[(1R)-1-(4-fluorophenyl)ethyl]-5-[6-(1H-tetrazol-1-yl)-1H-benzimidazol-2-yl]-1,3-oxazolidine-2,4-dione], the IC50 (read-out: IC50 rating) was in the range of 0.1 to 0.5 µM.
For `C[C@H](c1ccc(F)cc1)N1C(=O)O[C@](Cc2ccccc2)(c2nc3ccccc3[nH]2)C1=O` [Compound 3, (5R)-5-(1H-Benzimidazol-2-yl)-5-benzyl-3-[(1R)-1-(4-fluorophenyl)ethyl]-1,3-oxazolidine-2,4-dione], the IC50 (read-out: IC50 rating) lay in the range of 0.1 to 0.5 µM.

As usually defined, the IC50 is the concentration needed to halve the response being measured.
